The source of these data is patent US20030198614A1, “Hair growers” (priority 2000, published 2003).

A short description of assay [1]: Hair regrowth inducing effect test by cell cluster-accompanied culture method. The assay is classed as cell-based. As to conditions: Homo sapiens, Human dermal papilla cell, 48 h, 2 days, Alamer Blue fluorescence, relative to negative control, read-out: Relative respiration level (%). Here is the method:
The hair regrowth inducing effect was evaluated using, as an index, an increase in respiration level of a cell cluster formed under the coexistence of a normal human outer root sheath cell and a normal human dermal papilla cell.
Normal human dermal papilla cell (DP): A DP obtained by a primary culture from a head hair was subcultured three times in a 10% FBS-supplemented DMEM medium in a 75 cm^2 incubation flask coated with Type I collagen, and then stored while being frozen in a liquid nitrogen using a cell cryopreservation solution (Cellbanker II: DIA-IATRON).
Normal human outer root sheath cell (ORS): An ORS obtained by a primary culture from a head hair was subcultured three times in a SFM medium in a 75 cm^2 incubation flask coated with Type I collagen, and then stored while being frozen in a liquid nitrogen using Cellbanker II.
The DP and ORS cells stored as frozen were thawed, washed with an ice-cooled SFM medium, dispersed in the same medium and subjected to an accurate cell density measurement using a hemocytometer. Each cell density was adjusted at 5×10^4 cells/ml accurately, and the cell dispersions in equal volumes were combined under cooling with ice. 80 μl aliquots of the combined cell suspending SFM medium were inoculated into individual wells of a 96-well microplate (Sumilon celltight, spheroid 96U plate), and incubated for 2 days. The cell count in a single well upon inoculation was 2,000 cells for each of DP and ORS, thus 4,000 cells in total.
Each 80 μl of a test material-supplemented William's E(+) medium (William's E medium supplemented with 10 μg/ml transferrin, 10 ng/ml hydrocortisone, 10 μg/ml insulin and 10 ng/ml sodium selenite) was added to each well and incubated further for 2 days.
The test material-supplemented William's E(+) medium added to each well was prepared by dissolving the test material in ethanol at a concentration of 10 mM or 100 mM and adding to William's E(+) medium at 0.2% each. Accordingly, the final concentration of the test material in each well was 10 μM or 100 μM, and each final concentration of ethanol was 0.1%.
As a negative control, 80 μl of William's E(+) medium containing 0.2% ethanol was added (final concentration of ethanol was 0.1%).
Alamer Blue, SFM medium and William's E(+) medium were mixed in 2:1:1 ratio, warmed at 37° C. and then 40 μl aliquots were added to individual wells and allowed to react for 6 hours at 37° C. After completion of the reaction, 100 μl aliquots were taken from individual wells, and transferred to a white 96-well plate for fluorescence measurement (Opaque Plate).
A fluorometer (Labsystems Fluoroskan II) was used at the excitation wavelength of 544 nm and the fluorescent wavelength of 590 nm to measure the fluorescence intensity of each well, from which the fluorescent intensity of a cell-free reaction mixture (i.e., the reaction mixture treated similarly using a cell-free SFM medium) was subtracted to obtain a respiration level under each condition. From thus obtained respiration level, a relative respiration level(%) was calculated according to the following equation.
Relative respiration level(%)={Respiration level (test material)}/{Respiration level (negative control)}×100

The test system of assay [2] is cultured human trichoepithelial cell. Put plainly: Trichoepithelial cell growth promoting effect test. The class given is cell-based. Conditions: 1.0×10^-6 mol/L, 2 days, Alamer Blue; negative control = 0, positive control (insulin + hydrocortisone) = 1. Here is the method: According to the method described in JP-A-2000-63242, a cultured trichoepithelial cell of a human scalp was used to measure a trichoepithelial cell growth promoting effect.
From a human scalp obtained as a by-product of a surgical operation, a hair follicle at a anagen stage in a hair cycle was isolated mechanically under the observation by a stereoscopic microscope. This hair follicle at a anagen stage was treated in a Dulbecco's modified MEM (DMEM) supplemented with 1000 U/ml dispase and 0.2% collagenase for 30 minutes at 37° C. Adipose tissues, connective tissue root sheath and dermal papilla were removed therefrom using the tip of a syringe needle and the hair follicle was treated in a phosphate buffer containing 0.05% EDTA for 5 minutes at 37° C.
Subsequently, the hair follicle was placed on a culture dish coated with Type I collagen, and incubated in a KGM medium (serum-free keratinocyte growth medium). After incubation for 4 to 5 days, the culture medium was exchanged upon ensuring the adhesion of the hair follicle on the bottom face of the culture dish and the growth of the trichoepithelial cell, and thereafter the culture medium was exchanged every 2 days.
After the cell thus proliferated was treated in a phosphate buffer containing 0.05% trypsin and 0.02% EDTA for 5 minutes at 37° C., the reaction was quenched using an equal volume of 0.1% trypsin inhibitor and the cell was recovered by centrifugation (800×g, 5 minutes).
Subsequently, the cell was suspended in the serum-free culture medium described above, and inoculated at the density of 5000 cells/cm^2 onto a culture dish coated with Type I collagen. The culture medium was exchanged every 2 days until the cell became subconfluent. After treating the cell again in the phosphate buffer containing 0.05% trypsin and 0.02% EDTA for 5 minutes at 37° C., the reaction was quenched using an equal volume of 0.1% trypsin inhibitor and the cell was recovered by centrifugation (800×g, 5 minutes). The human trichoepithelial cell thus obtained was adjusted at the concentration of 100,000 cells/ml with a cell cryopreservation solution (Cellbanker: DIA-IATRON) added thereto, and dispensed into each freezing tube as a 100,000 cells (1 ml), which was then stored as being frozen. The cell counts described above were calculated using a hemocytometer.
After inoculating the trichoepithelial cell obtained in the step described above into a culture flask, the cell was treated with a phosphate buffer containing 0.25% trypsin and 0.02% EDTA. The reaction was quenched with 0.1% trypsin inhibitor, and then the mixture was centrifuged at 1,500 rpm for 5 minutes. The supernatant was removed, and the precipitated cell pellet was combined with a KGM medium to prepare a cell suspension.
The cell suspension in the KGM medium was inoculated to a Type I collager-coated 96-well microplate (Falcon) at 3,000 cells (0.2 ml)/well and allowed to stand for about 20 minutes at room temperature until the cell went down onto the bottom. Then, the cell was cultured for 1 day in an incubator in the presence of 5% CO2 at 37° C., whereby obtaining an intended cultured human trichoepithelial cell.
A test material and DMSO were added to a KGM medium at the final concentrations of 1.0×10^−6 mol/L and 0.1%, respectively.
Negative control: DMSO was added to a KGM medium at the final concentration of 0.1%.
Positive control: Insulin and hydrocortisone were dissolved in DMSO, which was then added to a KGM medium. The final concentrations of insulin, hydrocortisone and DMSO were 5 μg/ml, 0.5 μg/ml and 0.1%, respectively.
The KMG medium in the 96-well microplate employed for preparing the cultured human trichoepithelial cell in Step A described above was exchanged with a test material-supplemented medium or a control medium (200 μl/well), and the incubation was continued for 2 days in the presence of 5% CO2 at 37° C. […]

Consider `CCCCCCCCCCCCCCCCOCC(COC)OC` (stereo not drawn) [Compound 4, 1-(2,3-Dimethoxypropoxy)hexadecane], for which, in assay [1], the activity at 10 µM stood at 127% and the activity at 100 µM was 134%. Further, in assay [2], the “Cell growth promoting index” value is on record as 1.4.
Turning to `CCCCCCCCCCCCCCCCOCCCO` [Compound 3, 3-Hexadecyloxy-1-propanol], in assay [1], the activity at 10 µM was determined as 106% and the activity at 100 µM came to 108%. Moreover, the “Cell growth promoting index” value in assay [2] was determined as 1.4.
As to `CCCCCCCCCCCCCCCCOC(CO)COC` (stereo not drawn) [Compound 1, 2-Hexadecyloxy-3-methoxy-1-propanol], in assay [1], the activity at 10 µM came out at 139% and the activity at 100 µM was 157%. The “Cell growth promoting index” value in assay [2] came out at 1.3.
For the molecule `CCCCCCCCCCCCCCCCOCC(O)COC` (stereo not drawn) [Compound 2, 1-Hexadecyloxy-3-methoxy-2-propanol], in assay [1], the activity at 10 µM amounted to 108% and the activity at 100 µM worked out at 122%. The “Cell growth promoting index” value in assay [2] is reported as 1.5.
Regarding `CCCCCCCCCCCCCCCCCCC(CO)OC` (stereo not drawn) [Compound 5, 2-Methoxy-1-eicosanol], in assay [1], the activity at 10 µM stood at 124% and the activity at 100 µM came to 130%. Besides, the “Cell growth promoting index” value in assay [2] is reported as 1.2.
